pIC50, pKd: −log10 of the molar value. Read-outs that look alike come from different tables or passages of the source.

Data on 14 compounds can be found in publication PMC8997399, “High-Throughput Screening to Identify Inhibitors of Plasmodium falciparum Importin α” (Cells, 2022).

The target in assay [1] is PfIMPα (Plasmodium falciparum, UniProt Q8IAW0). The assay is described as follows: biochemical. The assay is classed as binding. The conditions noted are these: for inhibition at 10 µM: read-out: % Inhibition of IMPα-NLS Interaction PfIMPα. How it is done:
(§1) PfIMPα, TgIMPα, Mus musculus IMPα (MmIMPα), ΔIBBMmIMPα, and β1 (MmIMPβ) GST fusion proteins were expressed and purified essentially as previously. His-tagged TGS1-NLS-GFP, PfIMPα and TgIMPα proteins were purified using Ni^2+-affinity chromatography as described. His-tagged SV40 T-ag-NLS-GFP was purified as previously. Biotinylation of GST-tagged proteins was carried out using the Sulfo-NHS-Biotin reagent (Pierce, Rockford, IL, USA) as described previously. AlphaScreen binding assay was performed as described previously.
Then, 10 nM biotinylated PfIMPα and 60 nM TGS1-NLS-GFP were used with library compounds, screened at 10 µM final concentration.
Briefly, 5 μL of each compound in DMSO was added to quadruplicate wells of a 384-well plate along with appropriate controls including DMSO alone and ivermectin, as previously, using a JANUS Modular Dispense Technology (MDT) robotic system (PerkinElmer, Waltham, MA, USA). This was followed by successive 7 and 5 μL additions, respectively, of PfIMPα (10 nM) and TGS1-NLS-GFP (60 nM) or PBS (“no bait” control), respectively, and 30 min incubation at room temperature. […] Then, 4 µL of the AlphaScreen donor beads (1/40 dilution of GSH. acceptor beads in PBS) was finally added to each well using a Multidrop, followed by a further incubation of 2 h at room temperature in the dark.
(§2) Plates were read for an Alphascreen signal on an Envision plate reader (PerkinElmer, Waltham, MA, USA), with signals from the negative control wells (no bait control) on each plate subtracted.

Assay [2] deals with TgIMPα (Toxoplasma gondii, UniProt A0A125YID0). The assay is described as follows: biochemical. The conditions noted are these: for inhibition at 10 µM: read-out: % Inhibition of IMPα-NLS Interaction TgIMPα. It is filed as binding. How it is done: as §1, §2
Assay [3] addresses T1, MmΔIBBIMPα (Mus musculus, UniProt P52293).
T1 construct: made in house
In words: AlphaScreen binding assay, MmΔIBBIMPα:T-ag-NLS-GFP interaction. The conditions noted are these: for inhibition at 10 µM: read-out: % Inhibition of IMPα-NLS Interaction MmΔIBBIMPα. How it is done: as §1, §2
On the technique in general: In Alpha technology, singlet oxygen from a donor bead excites a nearby acceptor bead.

For assay [4], the target named is T2, MmIMPα/β heterodimer (Mus musculus, UniProt P52293).
T2 construct: GST; made in house
The assay is described as follows: AlphaScreen binding assay, MmIMPα/β:T-ag-NLS-GFP interaction. The conditions noted are these: for inhibition at 10 µM: read-out: % Inhibition of IMPα-NLS Interaction MmIMPα/β. As for the experimental part: as §1, §2

The target of assay [5] is His-tagged SV40 T-ag-NLS-GFP (NLS of simian virus SV40 large tumor antigen fused to GFP) (Simian Virus 40). The assay is described as follows: AlphaScreen or HTRF.
Assay [6] has as its system P. falciparum 3D7 strain. The assay is described as follows: P. falciparum growth inhibition assay (HRP2 sandwich ELISA). The assay is classed as cell-based, Plasmodium falciparum. The conditions noted are these: Plasmodium falciparum, 3D7, 72 h. How it is done: Red blood cells (RBCs) were derived from blood from volunteers (approval from the Institute Ethics Committee, IIT Bombay, Mumbai, India) by density gradient centrifugation. Aliquots of cryopreserved P. falciparum 3D7 strain in human red blood cells (RBCs—3% hematocrit, <5% parasitemia) were thawed and cultured using RPMI (Roswell Park Memorial Institute) 1640 medium supplemented with 0.5% Albumax (Gibco^TM, Waltham, MA, USA), 50 mg/L hypoxanthine (Sigma-Aldrich, St Louis, MO, USA), 2 g/L D-glucose (Sigma-Aldrich, St Louis, MO, USA), 2 g/L sodium bicarbonate (Sigma-Aldrich, St Louis, MO, USA), and 56 mg/L of gentamicin (Abbott, Chicago, IL, USA) at 37 °C in 5% CO2 in a humidified incubator according to the standard procedures; suspension cultures were maintained at 3% hematocrit and <5% parasitemia, by adding a fresh medium daily and a regular addition of fresh human RBCs.
Before growth inhibition assays, cultures were synchronized using 5% D-sorbitol (Sigma-Aldrich, St Louis, MO, USA) predominantly to obtain the ring stage of the P. falciparum life cycle.
Growth assays in the absence and presence of inhibitors were performed using the Histidine–Rich Protein 2 (HRP2) sandwich horseradish peroxidase-linked immunosorbent assay to measure HRP2 protein levels as an indicator of growth. Briefly, 25 µL of compound was added to 96-well microculture plates (Eppendorf, Hamburg, Germany) of 0.25% (with fresh RBCs), and added at a hematocrit of 3%. The plates were then incubated for 72 h at 37 °C in a humidified incubator, sparged with 5% CO2. 72 h later, the plates were subjected to freeze–thaw to achieve hemolysis, and samples diluted 200-fold in H2O in transferring to another plate. A day prior to analysis, 96-well ELISA plates (Sigma-Aldrich, St Louis, MO, USA) were coated overnight at 4 °C with 100 µL of 1 μg/mL IgM capture antibody MPFM-55A (Immunology Consultants Laboratory, Portland, OR, USA) specific for P. falciparum HRP2. After blocking for 2 h at room temperature with 2% BSA in PBS, diluted samples were added to the wells, followed by incubation for 2 h, then the plates were washed three times with 0.05% Tween 20 in PBS. Next, 100 µL of the secondary antibody MPFG-55P (Immunology Consultants Laboratory, Portland, OR, USA) conjugated with horseradish peroxidase (0.25 μg/mL in PBS with 2% BSA) was then added to each well, and the plates incubated for 1 h at room temperature, prior to being washed three times, and 100 µL 3,3′, 5,5′ tetramethylbenzidine substrate (BD Biosciences, San Jose, CA, USA) being added. After 10 min incubation in the dark, 50 µL of 1 M H2SO4 was added and the absorbance was read at 450 nm on a Multiscan™ FC Microplate Spectrophotometer (Thermo Fisher Scientific, Waltham, MA, USA).
Background: ELISA stands for enzyme-linked immunosorbent assay.

Assay [7] has as its system T. gondii tachyzoites. The conditions noted are these: cited from earlier work.
Assay [8] deals with His-tagged TGS1-NLS-GFP (NLS of P. falciparum trimethyl guanosine synthase 1 fused to GFP) (Plasmodium falciparum). In words: AlphaScreen or HTRF; Kd determination without inhibitors; His-tagged NLS-GFP (30 nM) and biotinylated-GST-IMPα (5 nM) as printed; pooled from three independent experiments.
Where [9] appears, read: compounds at 10 μM, PfIMPα (10 nM):TGS1-NLS-GFP (60 nM), relative to 1% DMSO control, quadruplicate.
Setting [10] is: compounds at 10 μM, TgIMPα (5 nM):T-ag-NLS-GFP (30 nM), relative to 1% DMSO control.
Setting [11] is: compounds at 10 μM, ΔIBBMmIMPα (5 nM):T-ag-NLS-GFP (30 nM), relative to 1% DMSO control.
Setting [12] is: compounds at 10 μM, MmIMPα/β (5 nM):T-ag-NLS-GFP (30 nM), relative to 1% DMSO control.

For the compound `O=c1ccc2ccc(O)c(O)c2o1` [Daphnetin], the inhibition at 10 µM in assay [1] (setting [9]) worked out at 81%; in assay [2] (setting [10]), 70%; in assay [3] (setting [11]), 81%; in assay [4] (setting [12]), 83%.
With `CC(C)(CN)c1nc(-c2ccc(Cl)c(O)c2)c(-c2ccnc(N)n2)[nH]1` [MMV030734], in assay [2] (setting [10]), the “% Inhibition of IMPα-NLS Interaction TgIMPα” value is 44%. The “% Inhibition of IMPα-NLS Interaction MmΔIBBIMPα” value in assay [3] (setting [11]) was 43%. The “% Inhibition of IMPα-NLS Interaction MmIMPα/β” value in assay [4] (setting [12]) came out at 68%.
On to `CNC[C@H](O)c1ccc(O)c(O)c1.Cl` (racemic) [(±)-Epinephrine HCl], for which the “% Inhibition of IMPα-NLS Interaction MmΔIBBIMPα” value in assay [3] is 35%; in assay [3] (listed as (±)-epinephrine HCl), < 55%. Moreover, the results for the “% Inhibition of IMPα-NLS Interaction MmIMPα/β” value in assay [4] and in assay [4] (listed as (±)-epinephrine HCl) were 95% and ≥ 95%, respectively.
Turning to `CC[n+]1c(/C=C/C=C2/N(C)c3ccccc3C2(C)C)sc2ccccc21.[I-]` [AC-93253 iodide], the “% Inhibition of IMPα-NLS Interaction PfIMPα” value in assay [1] (setting [9]) was determined as 82%. Also, in assay [2] (setting [10]), the “% Inhibition of IMPα-NLS Interaction TgIMPα” value is 72%. In addition, the “% Inhibition of IMPα-NLS Interaction MmΔIBBIMPα” value in assay [3] (setting [11]) came to 67%. In addition, the “% Inhibition of IMPα-NLS Interaction MmIMPα/β” value in assay [4] (setting [12]) amounted to 62%.
The corresponding values for `COc1ccc2c(c[n+](C)c3c4cc5c(cc4ccc23)OCO5)c1OC.[Cl-]` [Chelerythrine Cl] are 81%, 67%, 88% and 94%.
For the compound “Toxoplasma gondii importin α (TgIMPα), biotinylated GST fusion protein (natural protein)”, in assay [5], the pKd was 8.46.
Consider `O=C(Nc1nc(-c2ccccn2)cs1)c1cncn1-c1ccccc1` [MMV676512], for which the “% Inhibition of IMPα-NLS Interaction TgIMPα” value in assay [2] (setting [10]) was 48%. The “% Inhibition of IMPα-NLS Interaction MmΔIBBIMPα” value in assay [3] (setting [11]) turned out to be 54%.
For the compound `Cl.NCC(O)c1cc(O)c(O)cc1F` (stereo not drawn) [6-Fluoronorepinephrine HCl], in assay [1] (setting [9]), the “% Inhibition of IMPα-NLS Interaction PfIMPα” value is recorded as 77%. In addition, the “% Inhibition of IMPα-NLS Interaction TgIMPα” value in assay [2] (setting [10]) came to 67%. Besides, the “% Inhibition of IMPα-NLS Interaction MmΔIBBIMPα” value in assay [3] (setting [11]) stood at 60%. The “% Inhibition of IMPα-NLS Interaction MmIMPα/β” value in assay [4] (setting [12]) amounted to 51%.
`C[C@H]1[C@@H](O)O[C@@H]2O[C@@]3(C)CC[C@H]4[C@H](C)CC[C@@H]1[C@@]24OO3` [DHA, dihydroartemisinin]: the pIC50 in assay [6] (parasites in culture, pooled, mean ± SD (n = 3)) is 9.00; in assay [6] (single typical experiment (Figure 6)) it was 9.15.
Take `Cc1ccc(S(=O)(=O)/C=C/C#N)cc1` [Bay 11-7082]: the “inhibition of growth of T. gondii tachyzoites” value in assay [7] was “inhibit the growth”.
As to `O=C(Nc1ccc(N2CCNCC2)nc1)c1oc(-c2ccccc2)nc1C(F)(F)F` [MMV024937], the “% Inhibition of IMPα-NLS Interaction PfIMPα” value in assay [1] (setting [9]) worked out at 73%. Further, the “% Inhibition of IMPα-NLS Interaction TgIMPα” value in assay [2] (setting [10]) is on record as 26%. Also, the “% Inhibition of IMPα-NLS Interaction MmΔIBBIMPα” value in assay [3] (setting [11]) was 70%. In addition, the “% Inhibition of IMPα-NLS Interaction MmIMPα/β” value in assay [4] (setting [12]) is 24%.
In the case of `CNC[C@H](O)c1ccc(O)c(O)c1` [(−)-Epinephrine bitartrate], the inhibition at 10 µM in assay [1] is 85%; in assay [2] it was 23%; in assay [3] (setting [11]), 34%; in assay [4] (setting [12]) it was 94%.
As for “Plasmodium falciparum importin α (PfIMPα), biotinylated GST fusion protein (natural protein)”, the negative logarithm of the Kd (pKd) in assay [8] was 8.19.
“Mus musculus importin α deleted for the autoinhibitory IBB domain (MmΔIBBIMPα), biotinylated GST fusion protein (domain or fragment)” showed a pKd in assay [5] of 8.59.

A word on the pKd: it is the negative decadic logarithm of the Kd, by convention in mol/L. Low readings indicate a large Kd, high ones a small Kd. For orientation: pIC50 means the negative decadic logarithm of the IC50, by convention in mol/L. Lower therefore signals a high IC50.
